# Measurements as given in US6420570B1, “Psoralen compounds” (priority 1993, dated 2002).
# Where a name gives a salt, the structure may show the parent alone.
# Tests used:
# [1] = system: TA102; assay: Ames assay, dark mutagenicity, strain TA102
# Description: (§1) In this example the compounds of the present invention are tested for their dark mutagenicity using an Ames assay. The procedures used for the Salmonella mutagenicity test as described in detail by Maron and Ames were followed exactly. Maron, D. M. and B. N. Ames, Mutation Research 113:173 (1983). A brief description for each procedure is given here. The tester strains TA97a, TA98, TA100, TA102, TA1537 and TA1538 were obtained from Dr. Ames. TA97a, TA98, TA1537 and TA1538 are frameshift tester strains. TA100 and TA102 are base-substitution tester strains. Upon receipt each strain was cultured under a variety of conditions to confirm the genotypes specific to the strains.
# (§2) The first tests done with the strains were to determine the range of spontaneous reversion for each of the strains. With each mutagenicity experiment the spontaneous reversion of the tester strains to histidine independence was measured and expressed as the number of spontaneous revertants per plate. This served as the background controls.
# For all experiments, the pre-incubation procedure was used. In this procedure one vial of each tester strain was thawed and 20 μL of this culture was added to 6 mL of Oxoid Nutrient Broth #2. This solution was allowed to shake for 10 hours at 37° C. […] After incubation the number of revertant colonies on each plate were counted. […]
# [2] = system: Duck Hepatitis B Virus (DHBV); assay: Inactivation of Duck Hepatitis B Virus in platelet concentrate, PCR amplification read-out; settings: 5 J/CM^2 UVA
# Description: This example describes the protocol for inactivation of another virus, Duck Hepatitis B Virus (DHBV), using compounds of the present invention. DHBV in duck yolk was added to platelet concentrate (PC) to a final concentration of 2×10^7 particles per mL and mixed by gentle rocking for ≧15 min. […] Samples, including controls without added psoralen, were irradiated with 5 J/CM^2 UVA, with mixing at 1 J/cm^2 increments. After irradiation, leukocytes and platelets were separated from virus by centrifugation. […] Samples were extracted with phenolchloroform and chloroform, followed by ethanol precipitation. […] PCR amplicons were generated using primers pairs DCD03/DCD05 (127 bp), DCD03/DCD06 (327 bp) and DCD03/DCD07 (1072 bp). PCR was performed in a standard PCR buffer containing 0.2 mM each deoxyribonucleoside 5′-triphosphates (dATP, dGTP, dCTP, and dTTP), 0.5 […], and 0.5 units Taq polymerase per […]. 30 cycles of amplification were performed with the following thermal profile: 95° C. 30 sec, 60° C. 30 sec, 72° C. 1 min. The amplification was followed by a 7 min incubation at 72° C. to yield full length products. [[…]-^32P] dCTP was added at an amount of […] in order to detect and quantify the resulting products. Products were separated by electrophoresis on denaturing polyacrylamide slab gels and counted. The absence of signal in a given reaction was taken to indicate effective inactivation of DHBV.
# [3] = system: R17; assay: R17 bacteriophage inactivation screen, varying compound concentration; format: cell-based
# Description: The assay used to predict pathogen inactivation efficiency and to determine nucleic acid binding of the photoreactive binding compounds of the present invention was that in which a bacteriophage, R17, in solution with the desired substrate was irradiated. The ability of the phage to subsequently infect bacteria and inhibit their growth was measured. The bacteriophage was selected for its relatively accessible nucleic acid such that the culture growth inhibition would accurately reflect nucleic acid damage by the test compounds. The bacteriophage assay for nucleic acid binding to test compounds offers a safe and inexpensive procedure to identify compounds likely to display efficient pathogen inactivation. […] An aliquot (0.5 mL) was transferred to a 1.5 mL, snap-top polyethylene tube. An aliquot (0.004-0.040 mL) of the test compound stock solution prepared in water, ethanol or dimethylsulfoxide at 0.80-8.0 mM was added to the tube. Compounds were tested at concentrations between 4 μM and 320 μM. (AMT is commercially available from HRI, Inc., Concord, Calif.; 8-MOP is commercially available from Sigma, St. Louis, Mo.). The tubes were placed in a light device as described in EXAMPLE 1 and irradiated for between 1 and 10 minutes. […] To make the dilutions, a 0.100 mL aliquot of the irradiated solution of phage and test compound was added to the first dilution tube of 0.4 mL of media then 0.020 mL of this solution was added to the second tube of 0.5 mL medium (1:25). The second solution was then diluted serially (1:25) into the remaining tubes. […] After the top agar hardened, the plates were incubated at 37° C. overnight. The plaque forming units were then counted the following morning and the titer of the phage remaining after phototreatment was calculated based on the dilution factors. The following controls were run: the “phage only” in which phage was not treated with test compound and not irradiated (listed as “starting titer” in the tables below); the “UV only” in which the phage was irradiated in the absence of test compound; and the “dark” control in which the phage/test compound solution was not irradiated before it was diluted and plated.
# [4] = system: cell-free virus (HIV); format: cell-based; settings: Table 8, 1 minute irradiation, HIV starting titer approximately 5 logs
# Description: Pathogen inactivation efficiency of several compounds of the present invention was evaluated by examining the ability of the compounds to inactivate cell-free virus (HIV). Inactivation of cell-free HIV was performed as follows.
# As in the R17 assay, small aliquots of the compounds listed in TABLES 8 and 9, below, at the concentrations listed in the table, were added to stock HIV-1 to a total of 0.5 mL. The stock HIV (10^5-10^7 plaque forming units/mL) was in DMEM/15% FBS. […] Controls included HIV-1 stock only, HIV-1 plus UVA only, and HIV-1 plus the highest concentration of each psoralen tested, with no UVA. Post irradiation, all samples were stores frozen at −70° C. until assayed for infectivity by a microtiter plaque assay. Aliquots for measurement of residual HIV infectivity in the samples treated with a compound of the present invention were withdrawn and cultured.
# Residual HIV infectivity was assayed using an MT-2 infectivity assay. […] The assay medium was 85% DMEM (with a high glucose concentration) containing 100 μg of streptomycin, 100 U of penicillin, 50 μg of gentamicin, and 1 μg of amphotericin B per mL, 15% FBS and 2 μg of Polybrene (Sigma Chemical Co., St. Louis, Mo.) per mL. Test and control samples from the inactivation procedure were diluted in 50% assay medium and 50% normal human pooled plasma. The samples were serially diluted directly in 96-well plates (Corning Glass Works, corning, N.Y.). The plates were mixed on an oscillatory shaker for 30 seconds and incubated at 37° C. in a 5% CO2 atmosphere for 1 to 18 hours. […] After an additional 1 hour of incubation at 37° C. in 5% CO2, 0.075 mL of assay medium containing 1.6% SeaPlaque agarose (FMC Bioproducts, Rockland, me.) and prewarmed to 38.5° C. was added to each well. The plates were kept at 37° C. for a few minutes until several plates had accumulated and then centrifuged in plate carriers at 600×g for 20 minutes in a centrifuge precooled to 10° C. In the centrifuge, cell monolayers formed prior to gelling of the agarose layer. The plates were incubated for 5 days at 37° C. in 5% CO2 and stained by the addition of 0.05 mL of 50 μg/mL propidium iodide (Sigma Chemical Co.) in phosphate-buffered saline (pH 7.4) to each well. After 24 to 48 hours, the red fluorescence-stained microplaques were visualized by placing the plates on an 8,000 μW/cm^2 304 nm UV light box (Fotodyne, Inc., New Berlin, Wis.). The plaques were counted at a magnification of ×20 to ×25 through a stereomicroscope. “n” represents the number of runs for which the data point is an average.
# [5] = system: Salmonella tester strains; assay: Ames assay, dark mutagenicity, overall over tester strains
# Description: as §1, §2
# (§3) For all experiments, the pre-incubation procedure was used. In this procedure one vial of each tester strain was thawed and 20 μL of this culture was added to 6 mL of Oxoid Nutrient Broth #2. This solution was allowed to shake for 10 hours at 37° C. In the pre-incubation procedure, 0.1 mL of this overnight culture was added to each of the required number of sterile test tubes. To half of the tubes 0.5 mL of a 10% S-9 solution containing Aroclor 1254 induced rat liver extract (Molecular Toxicology Inc., Annapolis, MD), and MgCl2, KCl, glucose-6-phosphate, NADP, and sodium phosphate buffer (Sigma, St. Louis. Mo.) were added. To the other half of the tubes 0.5 mL of 0.2M sodium phospate buffer, pH 7.4, was used in place of the S-9 mixture (the -S9 samples) Finally 0.1 mL of the test solution containing either 0.0.1, 0.5, 1, 5, 10, 50, 100, 250, or 500 μg/mL of the test compound was added. The 0.7 mL mixture pre-incubated while shaking for 20 minutes at 37° C. After shaking, 2 mL of molten top agar supplemented with histidine and biotin were added to the 0.7 mL mixture and immediately poured onto a minimal glucose agar plate (volume of base agar was 20 ml.). The top agar was allowed 30 minutes to solidify and then the plates were inverted and incubated for 44 hours at 37° C. After incubation the number of revertant colonies on each plate were counted. […] (“n” represents the number of replicates performed for each data point.)
# (§4) Maron and Ames (1983) describe the conflicting views with regard to the statistical treatment of data generated from the test.
# [6] = system: TA1537; assay: Ames assay, dark mutagenicity, strain TA1537
# Description: as §1, §2, §3, §4
# [7] = system: TA1538; assay: Ames assay, dark mutagenicity, strain TA1538
# Description: as §1, §2, §3, §4
# [8] = system: DNA; settings: photoactivated binding; NCI Monograph 66:21 (1984); cited from earlier work
# [9] = Table 6, 16 uM, 1 minute irradiation = 1.2 J/cm^2, starting titer approx. 7.1 logs
# [10] = Table 6, 32 uM, 1 minute irradiation = 1.2 J/cm^2, starting titer approx. 7.1 logs
structure (smiles),measurement,setting,value
"Cc1oc2c(C)c3oc(=O)cc(C)c3cc2c1CNCCN (as salt: hydrochloride) [Compound 1, 4′-(4-amino-2-aza)butyl-4,5′,8-trimethylpsoralen dihydrochloride]",melting point,,320 to 322 °C (dec.)
"COc1c2occc2cc2ccc(=O)oc12 [Compound 8-MOP, 8-Methoxypsoralen]",dose at which the only mutagenic response (weak base-substitution mutagen) was detected,[1]; TA102,500 μg/plate
Cc1oc2c(C)c3oc(=O)cc(C)c3cc2c1COCCN [Compound S-59],PCR of the smaller amplicons compared with AMT,"[2]; 127 bp and 327 bp amplicons, same concentrations",inhibited PCR of the smaller amplicons better than did AMT
same,PCR of the 1072 bp amplicon,"[2]; all concentrations (35, 70, and 100 mM), platelet concentrate",complete inhibition of PCR
"Cc1oc2c(C)c3oc(=O)cc(C)c3cc2c1COCCCN [Compound 4, 4′-(5-amino-2-oxa)pentyl-4,5′,8-trimethylpsoralen]",R17 log kill 16 uM,[3]; [9],2.3 log
same,R17 log kill 32 uM,[3]; [10],4.3 log
same,R17 log kill 64 uM,"[3]; Table 6, 64 uM, 1 minute irradiation = 1.2 J/cm^2, starting titer approx. 7.1 logs",>6.1 log
same,HIV Log Kill 32 μM,[4]; 32 μM,2.2 log
same,HIV Log Kill 64 μM,[4]; 64 μM,>3.6 log
same,mutagenicity as defined by the Ames test,[5]; two-fold or greater increase in revertants above background and dose dependent response,no mutagenicity
"Cc1oc2c(C)c3oc(=O)cc(C)c3cc2c1CNCCCN (as salt: hydrochloride) [Compound 5, 4′-(5-amino-2-aza)pentyl-4,5′,8-trimethylpsoralen dihydrochloride]",melting point,,288 °C (dec.)
"Cc1oc2c(C)c3oc(=O)cc(C)c3cc2c1CN [AMT, 4′-Aminomethyl-4,5′,8-trimethylpsoralen, reference compound]",R17 Log Kill 8 uM,"[3]; Table 5, 8 uM, 1 minute irradiation, starting titer approx. 7.2 logs",2.7 log
same,R17 Log Kill 16 uM,"[3]; Table 5, 16 uM, 1 minute irradiation, starting titer approx. 7.2 logs",4.6 log
same,R17 Log Kill 32 uM,"[3]; Table 5, 32 uM, 1 minute irradiation, starting titer approx. 7.2 logs",>6.2 log
same,R17 log kill 16 uM,[3]; [9],4.5 log
same,R17 log kill 32 uM,[3]; [10],4.8 log
same,R17 log kill 16 uM,"[3]; Table 7, 16 uM, 1 minute irradiation, starting titer approx. 7.1 logs",>6 log
same,R17 log kill 32 uM,"[3]; Table 7, 32 uM, 1 minute irradiation, starting titer approx. 7.1 logs",>6 log
same,HIV Log Kill 16 μM,[4]; 16 μM,1.4 log
same,PCR amplification of the 1072 bp amplicon,[2]; platelet concentrate,a signal could be detected
same,PCR amplification of the 1072 bp amplicon,"[2]; 70 and 100 mM levels, platelet concentrate",inhibited PCR amplification
same,dose at which frameshift mutagenicity was shown,[6]; TA1537,5 μg/plate
same,revertant colonies per plate,"[6]; TA1537 −S9, 100 μg/plate",2058
same,dose at which frameshift mutagenicity was shown,[7]; TA1538,1 μg/plate
same,revertant colonies per plate,"[7]; TA1538 +S9, 0.5 μg/plate",13
same,revertant colonies per plate,"[7]; TA1538 +S9, 1 μg/plate",37
same,revertant colonies per plate,"[7]; TA1538 +S9, 5 μg/plate",177
same,revertant colonies per plate,"[7]; TA1538 +S9, 10 μg/plate",255
same,revertant colonies per plate,"[7]; TA1538 −S9, 0.5 μg/plate",4
same,revertant colonies per plate,"[7]; TA1538 −S9, 1 μg/plate",4
same,revertant colonies per plate,"[7]; TA1538 −S9, 5 μg/plate",13
same,base-substitution mutagenicity,[5]; base-substitution tester strains TA100 and TA102,no significant base-substitution mutations
same,concentration at which mutagenicity was displayed,[5]; comparison with Compound 6,5 μg/plate
same,DNA base pairs per adduct (up to 1 AMT adduct per),[8],3.5 DNA base pairs
OO [hydrogen peroxide],"revertant colonies per plate, positive control","[1]; Salmonella typhimurium, 44 h, 100 μg/plt, pH 7.4",660
